In ChEMBL document CHEMBL5442379, “ASAP - SARS-CoV-2 nsp3 macrodomain single point” (2024):

Molecular target: Replicase polyprotein 1ab (Severe acute respiratory syndrome coronavirus 2) (UniProt P0DTD1)
Description: Functional biochemical assay to identify treatments for viral infectious disease that targets SARS-COV-2 nsp3 macrodomain, whereby the mechanism of action displaces an ADP-Ribose modified peptide from the binding site. Utilizing a time-resolved fluorescence method to measure binding by reading the emitted fluorescence intensity in two wavelengths.

O=C(NC1CCC(F)(F)CC1)c1ncnc2[nH]ccc12
inhibition (Concentration 49.75 uM, Number of replicates 2.0, Standard deviation 1.299 %): -3.47%
inhibition (Concentration 99.5 uM, Number of replicates 2.0, Standard deviation 1.382 %): -5.78%

c1ccc([C@@H](CNc2ncnc3n[nH]cc23)N2CCOCC2)cc1
inhibition (Concentration 50.0 uM, Number of replicates 2.0, Standard deviation 1.427 %): -0.781%

O=C(NCc1c[nH]nn1)c1cnn2ccc(C3CCN(C(=O)c4ccccc4)CC3)cc12
inhibition (Concentration 49.75 uM, Number of replicates 2.0, Standard deviation 0.251 %): -2.86%
inhibition (Concentration 99.5 uM, Number of replicates 2.0, Standard deviation 8.51 %): 2.17%

CN(c1ncnc2[nH]ccc12)[C@H]1CCN(S(C)(=O)=O)C1
inhibition (Concentration 50.0 uM, Number of replicates 2.0, Standard deviation 5.861 %): -0.371%

CC(C)[C@@H](Nc1ncnc2[nH]ccc12)C(=O)N(C)Cc1nnc2n1CCC2
inhibition (Concentration 49.75 uM, Number of replicates 2.0, Standard deviation 4.689 %): -8.89%
inhibition (Concentration 99.5 uM, Number of replicates 2.0, Standard deviation 1.151 %): -6.14%

O=C(c1cnc2[nH]ncc2c1)N1CCC(c2ccn3ncc(C(=O)N4CCCCC4)c3c2)CC1
inhibition (Concentration 49.75 uM, Number of replicates 2.0, Standard deviation 0.466 %): 15.8%
inhibition (Concentration 99.5 uM, Number of replicates 2.0, Standard deviation 6.369 %): 34.4%

Cc1nc(C(=O)N2CCC(c3ccn4ncc(C(=O)N5CCCCC5)c4c3)CC2)c(=O)[nH]c1C
inhibition (Concentration 49.75 uM, Number of replicates 2.0, Standard deviation 2.437 %): 26.4%
inhibition (Concentration 99.5 uM, Number of replicates 2.0, Standard deviation 0.005 %): 44.2%

Cc1cccc(OCCNc2ncnc3nc[nH]c23)c1
inhibition (Concentration 50.0 uM, Number of replicates 2.0, Standard deviation 4.697 %): 3.91%

Cc1ncc(NCc2csc(-c3ccccn3)n2)cn1
inhibition (Concentration 49.75 uM, Number of replicates 2.0, Standard deviation 3.788 %): -5.23%
inhibition (Concentration 99.5 uM, Number of replicates 2.0, Standard deviation 2.632 %): -4.49%

O=C(c1ccncc1)N1CCC(c2ccn3ncc(C(=O)N4CCCCC4)c3c2)CC1
inhibition (Concentration 49.75 uM, Number of replicates 2.0, Standard deviation 1.966 %): 10.8%
inhibition (Concentration 99.5 uM, Number of replicates 2.0, Standard deviation 0.415 %): 26.5%

O=C(Nc1nc2ccc(F)cc2[nH]1)c1cc(N2CCNC2=O)ccc1F
inhibition (Concentration 50.0 uM, Number of replicates 2.0, Standard deviation 3.412 %): -7.71%

O=C(Nc1ccc(O)cc1)Nc1ccc(Oc2ccccc2)cc1
inhibition (Concentration 50.0 uM, Number of replicates 2.0, Standard deviation 2.274 %): -3.31%

COC[C@@H](Nc1ncnc2nc[nH]c12)c1ccc(C)o1
inhibition (Concentration 49.75 uM, Number of replicates 2.0, Standard deviation 2.621 %): -4.64%
inhibition (Concentration 99.5 uM, Number of replicates 2.0, Standard deviation 0.049 %): 3.94%

O=C(O)c1ccsc1C(=O)N1CCC(c2ccn3ncc(C(=O)N4CCCCC4)c3c2)CC1
inhibition (Concentration 49.75 uM, Number of replicates 2.0, Standard deviation 4.674 %): 45%
inhibition (Concentration 99.5 uM, Number of replicates 2.0, Standard deviation 0.647 %): 61.2%

Cn1cc(NC(=O)c2ccc(NC(=O)Nc3ccccc3)cc2)c(C#N)n1
inhibition (Concentration 49.75 uM, Number of replicates 2.0, Standard deviation 0.991 %): 2.49%
inhibition (Concentration 99.5 uM, Number of replicates 2.0, Standard deviation 1.521 %): -0.539%

C(=C1CCCCC1)c1ncnc2[nH]ccc12
inhibition (Concentration 50.0 uM, Number of replicates 2.0, Standard deviation 3.96 %): -5.46%
inhibition (Concentration 100.0 uM, Number of replicates 2.0, Standard deviation 2.541 %): 3.46%

O=C(Cc1ccon1)Nc1ncnc2[nH]cnc12
inhibition (Concentration 50.0 uM, Number of replicates 2.0, Standard deviation 0.023 %): -1.61%

c1nc(N2CC[C@@H](n3cncn3)C2)c2cc[nH]c2n1
inhibition (Concentration 50.0 uM, Number of replicates 2.0, Standard deviation 1.464 %): -1.54%

O=C(c1nc(=O)[nH][nH]1)N1CCC(c2ccn3ncc(C(=O)N4CCCCC4)c3c2)CC1
inhibition (Concentration 49.75 uM, Number of replicates 2.0, Standard deviation 0.837 %): 23.4%
inhibition (Concentration 99.5 uM, Number of replicates 2.0, Standard deviation 3.14 %): 34.6%

Cc1nc(C)c(CC(=O)Nc2cnc3[nH]ncc3c2)c(=O)[nH]1
inhibition (Concentration 50.0 uM, Number of replicates 2.0, Standard deviation 0.296 %): 4.83%

CC(C)c1nc([C@@H](C)Nc2ncnc3nc[nH]c23)cs1
inhibition (Concentration 49.75 uM, Number of replicates 2.0, Standard deviation 2.607 %): 2.65%
inhibition (Concentration 99.5 uM, Number of replicates 2.0, Standard deviation 0.232 %): 3.07%

CCc1n[nH]c(NC(=O)c2ccc(NC(=O)Nc3ccccc3)cc2)c1Br
inhibition (Concentration 49.75 uM, Number of replicates 2.0, Standard deviation 2.077 %): -5.57%
inhibition (Concentration 99.5 uM, Number of replicates 2.0, Standard deviation 0.313 %): 0.467%

Cc1[nH]c2ncnc(NC(=O)c3ncn(-c4ccccc4)n3)c2c1C
inhibition (Concentration 50.0 uM, Number of replicates 2.0, Standard deviation 1.407 %): 7.1%

Cc1nc(NC(=O)Cn2cnc3ccccc3c2=O)c2cc[nH]c2n1
inhibition (Concentration 49.75 uM, Number of replicates 2.0, Standard deviation 4.18 %): -4.07%
inhibition (Concentration 99.5 uM, Number of replicates 2.0, Standard deviation 1.131 %): -4.89%

Cc1nn(-c2ccccc2)c(C)c1[C@H]1COCCN1c1ncnc2[nH]ccc12
inhibition (Concentration 49.75 uM, Number of replicates 2.0, Standard deviation 1.442 %): -0.042%
inhibition (Concentration 99.5 uM, Number of replicates 2.0, Standard deviation 1.631 %): -4.22%

c1ccc(-c2n[nH]cc2CNc2cnc3[nH]ncc3c2)cc1
inhibition (Concentration 50.0 uM, Number of replicates 2.0, Standard deviation 1.159 %): -2.04%

O=C(c1ccccc1)N1CCC(c2ccn3ncc(C(=O)N4CCCC[C@H](O)C4)c3c2)CC1
inhibition (Concentration 49.75 uM, Number of replicates 2.0, Standard deviation 40.732 %): 17.8%
inhibition (Concentration 99.5 uM, Number of replicates 2.0, Standard deviation 41.407 %): 29.8%

CN1CCC[C@H](NC(=O)c2cnn3ccc(C4CCN(C(=O)c5ccccc5)CC4)cc23)C1
inhibition (Concentration 49.75 uM, Number of replicates 2.0, Standard deviation 0.821 %): -6.99%
inhibition (Concentration 99.5 uM, Number of replicates 2.0, Standard deviation 3.447 %): -5.44%

Cc1[nH]ncc1CN(C)C(=O)c1cnn2ccc(C3CCN(C(=O)c4ccccc4)CC3)cc12
inhibition (Concentration 49.75 uM, Number of replicates 2.0, Standard deviation 5.917 %): -1.14%
inhibition (Concentration 99.5 uM, Number of replicates 2.0, Standard deviation 7.587 %): 0.307%

Cn1nc(C(=O)N2CCC(c3ccn4ncc(C(=O)N5CCCCC5)c4c3)CC2)cc1C(=O)O
inhibition (Concentration 49.75 uM, Number of replicates 2.0, Standard deviation 1.938 %): 42.7%
inhibition (Concentration 99.5 uM, Number of replicates 2.0, Standard deviation 2.395 %): 59.7%

Cc1ncc(C(=O)N(CCC(=O)N2CCNCC2)Cc2cccc(Cl)c2)cc1N
inhibition (Concentration 49.75 uM, Number of replicates 2.0, Standard deviation 3.028 %): 1.35%
inhibition (Concentration 99.5 uM, Number of replicates 2.0, Standard deviation 0.599 %): 1.3%

CC(C)(c1noc(-c2ncnc3[nH]ccc23)n1)S(C)(=O)=O
inhibition (Concentration 50.0 uM, Number of replicates 2.0, Standard deviation 1.059 %): -0.756%

Cc1nccc(C(=O)N2CCC(c3ccn4ncc(C(=O)N5CCCCC5)c4c3)CC2)n1
inhibition (Concentration 49.75 uM, Number of replicates 2.0, Standard deviation 2.531 %): 16.5%
inhibition (Concentration 99.5 uM, Number of replicates 2.0, Standard deviation 1.199 %): 27.4%

C[C@]1(C(=O)N(CCC(=O)N2CCNCC2)Cc2cccc(Cl)c2)CCCN1
inhibition (Concentration 49.75 uM, Number of replicates 2.0, Standard deviation 5.247 %): 1.4%
inhibition (Concentration 99.5 uM, Number of replicates 2.0, Standard deviation 0.402 %): 2.13%

Nc1ncnc2c1ncn2Cc1cccc2ncnn12
inhibition (Concentration 49.75 uM, Number of replicates 2.0, Standard deviation 0.496 %): -0.553%
inhibition (Concentration 99.5 uM, Number of replicates 2.0, Standard deviation 1.809 %): -3.16%

Cc1n[nH]nc1C(=O)N1CCC(c2ccn3ncc(C(=O)N4CCCCC4)c3c2)CC1
inhibition (Concentration 49.75 uM, Number of replicates 2.0, Standard deviation 0.483 %): 29.3%
inhibition (Concentration 99.5 uM, Number of replicates 2.0, Standard deviation 0.403 %): 45.8%

Cc1cccc([C@@H]2CCCN2c2ncnc3[nH]ccc23)n1
inhibition (Concentration 50.0 uM, Number of replicates 2.0, Standard deviation 4.141 %): 0.182%

OCc1cn([C@@H]2CCCN(c3ncnc4[nH]ccc34)C2)nn1
inhibition (Concentration 50.0 uM, Number of replicates 2.0, Standard deviation 2.708 %): -0.682%
